Experimental data published in the kinase profiling compilation of Christmann-Franck et al. (2016).
Several values for one entry are separate records, joined by “and”; a condition that tells them apart may be missing. Identical values can stand only once.

Experiments:
Test in all cases: radiometric filter-binding kinase assay, Kinase HotSpot
Conditions in all cases: compound 0.5 µM; ATP 10 µM
GSK3B (human) = GSK3B (human) (UniProt P49841)
PNCK (human) = PNCK (human) (UniProt Q6P2M8)
GRK7 (human) = GRK7 (human) (UniProt Q8WTQ7)
MARK2 (human) = MARK2 (human) (UniProt Q7KZI7)
FGFR2 (human) = FGFR2 (human) (UniProt P21802)
PKN1 (human) = PKN1 (human) (UniProt Q16512)
SGK2 (human) = SGK2 (human) (UniProt Q9HBY8)
BMX (human) = BMX (human) (UniProt P51813)
MYLK (human) = MYLK (human) (UniProt Q15746)
TLK2 (human) = TLK2 (human) (UniProt Q86UE8)
Chain of TLK2 (human) (Q86UE8 whole entry, looked up): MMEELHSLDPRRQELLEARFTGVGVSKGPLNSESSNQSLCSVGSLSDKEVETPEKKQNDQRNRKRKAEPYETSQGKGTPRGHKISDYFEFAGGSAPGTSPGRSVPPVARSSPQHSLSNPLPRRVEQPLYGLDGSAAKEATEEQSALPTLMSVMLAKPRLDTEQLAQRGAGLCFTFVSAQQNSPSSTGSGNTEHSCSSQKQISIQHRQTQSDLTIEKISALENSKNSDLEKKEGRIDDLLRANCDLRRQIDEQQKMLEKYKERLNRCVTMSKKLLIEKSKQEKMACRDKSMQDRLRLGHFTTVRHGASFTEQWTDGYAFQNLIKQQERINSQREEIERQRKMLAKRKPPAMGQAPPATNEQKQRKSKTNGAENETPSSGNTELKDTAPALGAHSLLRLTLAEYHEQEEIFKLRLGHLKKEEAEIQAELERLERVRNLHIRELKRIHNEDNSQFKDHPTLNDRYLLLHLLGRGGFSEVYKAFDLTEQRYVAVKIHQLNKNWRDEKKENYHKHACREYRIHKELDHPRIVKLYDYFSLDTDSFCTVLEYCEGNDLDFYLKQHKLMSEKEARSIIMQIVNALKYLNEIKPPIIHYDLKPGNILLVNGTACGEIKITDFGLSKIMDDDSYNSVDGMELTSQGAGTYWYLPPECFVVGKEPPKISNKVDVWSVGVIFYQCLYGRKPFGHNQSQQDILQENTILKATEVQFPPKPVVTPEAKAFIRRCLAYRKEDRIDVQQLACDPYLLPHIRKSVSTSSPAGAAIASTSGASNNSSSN

ULK3 (human) = ULK3 (human) (UniProt Q6PHR2)
MAPK12 (human) = MAPK12 (human) (UniProt P53778)
PLK1 (human) = PLK1 (human) (UniProt P53350)
NEK3 (human) = NEK3 (human) (UniProt P51956)
CDK6 CCND3 (human) = CDK6 CCND3 (human) (UniProt P30281+Q00534)
FER (human) = FER (human) (UniProt P16591)
GRK4 (human) = GRK4 (human) (UniProt P32298)
Chain of GRK4 (human) (P32298 whole entry, looked up): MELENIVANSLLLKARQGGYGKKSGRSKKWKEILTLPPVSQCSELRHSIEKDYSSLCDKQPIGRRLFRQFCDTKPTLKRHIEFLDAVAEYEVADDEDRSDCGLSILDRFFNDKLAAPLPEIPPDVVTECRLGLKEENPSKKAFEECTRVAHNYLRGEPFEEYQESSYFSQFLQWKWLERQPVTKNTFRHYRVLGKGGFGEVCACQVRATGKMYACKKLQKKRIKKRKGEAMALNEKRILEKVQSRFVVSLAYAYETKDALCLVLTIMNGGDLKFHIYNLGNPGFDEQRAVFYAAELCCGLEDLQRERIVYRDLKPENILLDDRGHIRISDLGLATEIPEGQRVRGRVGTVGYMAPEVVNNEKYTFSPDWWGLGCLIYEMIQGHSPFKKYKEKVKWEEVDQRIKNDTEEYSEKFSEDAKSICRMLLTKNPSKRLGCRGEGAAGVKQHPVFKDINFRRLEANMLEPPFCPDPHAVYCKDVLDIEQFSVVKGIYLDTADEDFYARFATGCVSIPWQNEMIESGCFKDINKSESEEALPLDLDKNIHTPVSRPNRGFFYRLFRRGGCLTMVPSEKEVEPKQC

CHEK2 (human) = CHEK2 (human) (UniProt O96017)
DMPK (human) = DMPK (human) (UniProt Q09013)
IRAK4 (human) = IRAK4 (human) (UniProt Q9NWZ3)
Chain of IRAK4 (human) (Q9NWZ3 whole entry, looked up): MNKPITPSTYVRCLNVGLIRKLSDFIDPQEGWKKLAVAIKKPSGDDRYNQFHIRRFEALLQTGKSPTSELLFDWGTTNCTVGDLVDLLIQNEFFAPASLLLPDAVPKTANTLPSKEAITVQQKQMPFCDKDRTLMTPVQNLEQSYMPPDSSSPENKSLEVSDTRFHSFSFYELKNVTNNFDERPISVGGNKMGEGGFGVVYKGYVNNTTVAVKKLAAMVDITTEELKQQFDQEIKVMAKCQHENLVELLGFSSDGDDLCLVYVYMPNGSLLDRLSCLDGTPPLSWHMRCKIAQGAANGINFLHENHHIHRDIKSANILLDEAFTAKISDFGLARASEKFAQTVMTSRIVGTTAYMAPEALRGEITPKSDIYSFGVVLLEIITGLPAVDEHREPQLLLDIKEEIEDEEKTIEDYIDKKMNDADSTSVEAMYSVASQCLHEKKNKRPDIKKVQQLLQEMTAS

AURKA (human) = AURKA (human) (UniProt O14965)
HIPK1 (human) = HIPK1 (human) (UniProt Q86Z02)
JAK3 JH1 JH2 (human) = JAK3 JH1 JH2 (human) (UniProt P52333)
EPHA5 (human) = EPHA5 (human) (UniProt P54756)
MAP3K8 (human) = MAP3K8 (human) (UniProt P41279)
DYRK2 (human) = DYRK2 (human) (UniProt Q92630)
EPHB4 (human) = EPHB4 (human) (UniProt P54760)
STK3 (human) = STK3 (human) (UniProt Q13188)
RPS6KA4 KD2 (human) = RPS6KA4 KD2 (human) (UniProt O75676)
Chain of RPS6KA4 KD2 (human) (O75676 whole entry, looked up): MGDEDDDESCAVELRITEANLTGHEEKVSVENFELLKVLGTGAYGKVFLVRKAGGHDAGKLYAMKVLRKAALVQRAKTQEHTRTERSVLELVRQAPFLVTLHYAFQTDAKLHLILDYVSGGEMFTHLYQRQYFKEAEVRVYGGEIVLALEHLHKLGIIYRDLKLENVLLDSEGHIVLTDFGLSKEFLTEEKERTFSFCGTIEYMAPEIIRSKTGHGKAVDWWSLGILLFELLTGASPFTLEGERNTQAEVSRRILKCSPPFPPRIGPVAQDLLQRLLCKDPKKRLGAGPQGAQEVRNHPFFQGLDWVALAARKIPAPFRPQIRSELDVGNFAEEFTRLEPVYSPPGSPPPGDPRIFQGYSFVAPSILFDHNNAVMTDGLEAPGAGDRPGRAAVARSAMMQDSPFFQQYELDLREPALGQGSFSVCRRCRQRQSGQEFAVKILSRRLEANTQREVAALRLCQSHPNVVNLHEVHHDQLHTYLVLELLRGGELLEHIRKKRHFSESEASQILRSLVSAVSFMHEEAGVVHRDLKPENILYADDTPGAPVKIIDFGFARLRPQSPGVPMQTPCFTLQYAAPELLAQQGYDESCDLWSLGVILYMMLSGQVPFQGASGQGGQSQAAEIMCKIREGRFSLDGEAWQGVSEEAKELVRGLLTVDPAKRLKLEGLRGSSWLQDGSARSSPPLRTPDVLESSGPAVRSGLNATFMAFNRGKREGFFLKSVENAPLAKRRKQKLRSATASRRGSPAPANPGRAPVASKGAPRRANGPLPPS

MLTK (human) = MLTK (human) (UniProt Q9NYL2)
Chain of MLTK (human) (Q9NYL2 whole entry, looked up): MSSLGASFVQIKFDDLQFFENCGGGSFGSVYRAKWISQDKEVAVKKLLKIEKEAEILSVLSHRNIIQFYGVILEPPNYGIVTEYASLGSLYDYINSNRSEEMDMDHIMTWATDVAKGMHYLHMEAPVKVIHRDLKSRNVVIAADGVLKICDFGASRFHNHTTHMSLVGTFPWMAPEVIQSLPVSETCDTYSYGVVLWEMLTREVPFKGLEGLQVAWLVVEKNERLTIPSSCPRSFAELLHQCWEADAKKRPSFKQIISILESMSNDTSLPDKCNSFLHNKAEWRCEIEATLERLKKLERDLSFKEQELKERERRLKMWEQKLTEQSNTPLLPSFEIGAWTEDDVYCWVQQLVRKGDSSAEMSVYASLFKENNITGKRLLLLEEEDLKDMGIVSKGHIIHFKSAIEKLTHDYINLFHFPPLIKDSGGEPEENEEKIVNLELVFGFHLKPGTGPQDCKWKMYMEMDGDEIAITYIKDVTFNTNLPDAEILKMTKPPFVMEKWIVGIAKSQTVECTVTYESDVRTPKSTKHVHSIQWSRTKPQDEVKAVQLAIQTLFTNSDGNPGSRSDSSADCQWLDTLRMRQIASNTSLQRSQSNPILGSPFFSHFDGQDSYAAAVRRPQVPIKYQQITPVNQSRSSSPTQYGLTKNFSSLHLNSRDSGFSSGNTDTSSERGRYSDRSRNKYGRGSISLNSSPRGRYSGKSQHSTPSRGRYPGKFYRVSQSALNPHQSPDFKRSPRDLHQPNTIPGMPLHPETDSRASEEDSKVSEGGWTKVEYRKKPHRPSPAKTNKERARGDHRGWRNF

MST1R (human) = MST1R (human) (UniProt Q04912)
BTK (human) = BTK (human) (UniProt Q06187)
TYRO3 (human) = TYRO3 (human) (UniProt Q06418)
LYN (human) = LYN (human) (UniProt P07948)
Chain of LYN (human) (P07948 whole entry, looked up): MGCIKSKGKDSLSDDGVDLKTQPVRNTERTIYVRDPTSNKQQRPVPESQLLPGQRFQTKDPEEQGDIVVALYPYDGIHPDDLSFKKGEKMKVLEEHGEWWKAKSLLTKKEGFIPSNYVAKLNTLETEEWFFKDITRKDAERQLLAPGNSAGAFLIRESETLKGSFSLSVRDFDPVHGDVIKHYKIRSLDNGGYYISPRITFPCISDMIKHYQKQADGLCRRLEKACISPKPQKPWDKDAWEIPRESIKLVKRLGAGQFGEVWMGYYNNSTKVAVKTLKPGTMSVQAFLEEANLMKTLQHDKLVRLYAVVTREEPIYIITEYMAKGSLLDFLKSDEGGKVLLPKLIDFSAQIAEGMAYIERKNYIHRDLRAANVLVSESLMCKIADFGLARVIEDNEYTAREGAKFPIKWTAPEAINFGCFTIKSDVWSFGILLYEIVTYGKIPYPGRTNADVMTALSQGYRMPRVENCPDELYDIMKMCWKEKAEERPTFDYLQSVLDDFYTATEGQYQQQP

FGFR4 (human) = FGFR4 (human) (UniProt P22455)
SRC (human) = SRC (human) (UniProt P12931)
PRKG1 (human) = PRKG1 (human) (UniProt Q13976)
Chain of PRKG1 (human) (Q13976 whole entry, looked up): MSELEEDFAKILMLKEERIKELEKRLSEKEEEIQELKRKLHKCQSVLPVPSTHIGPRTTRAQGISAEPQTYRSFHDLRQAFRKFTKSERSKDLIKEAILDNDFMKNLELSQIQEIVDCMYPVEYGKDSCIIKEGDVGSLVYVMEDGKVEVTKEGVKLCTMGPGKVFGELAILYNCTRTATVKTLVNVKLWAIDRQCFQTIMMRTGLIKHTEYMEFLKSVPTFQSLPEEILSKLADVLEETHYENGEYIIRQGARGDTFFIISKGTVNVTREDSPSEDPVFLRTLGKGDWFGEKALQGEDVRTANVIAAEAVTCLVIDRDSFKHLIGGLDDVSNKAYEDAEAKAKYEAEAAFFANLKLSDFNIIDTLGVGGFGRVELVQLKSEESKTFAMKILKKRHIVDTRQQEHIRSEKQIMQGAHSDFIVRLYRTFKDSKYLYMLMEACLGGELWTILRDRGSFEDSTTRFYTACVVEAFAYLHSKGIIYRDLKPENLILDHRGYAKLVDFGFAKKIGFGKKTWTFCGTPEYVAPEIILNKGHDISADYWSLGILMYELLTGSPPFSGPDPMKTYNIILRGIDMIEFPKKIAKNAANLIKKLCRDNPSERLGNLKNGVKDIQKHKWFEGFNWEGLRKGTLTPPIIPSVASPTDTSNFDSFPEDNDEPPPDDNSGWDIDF

CSK (human) = CSK (human) (UniProt P41240)
DAPK3 (human) = DAPK3 (human) (UniProt O43293)
Chain of DAPK3 (human) (O43293 whole entry, looked up): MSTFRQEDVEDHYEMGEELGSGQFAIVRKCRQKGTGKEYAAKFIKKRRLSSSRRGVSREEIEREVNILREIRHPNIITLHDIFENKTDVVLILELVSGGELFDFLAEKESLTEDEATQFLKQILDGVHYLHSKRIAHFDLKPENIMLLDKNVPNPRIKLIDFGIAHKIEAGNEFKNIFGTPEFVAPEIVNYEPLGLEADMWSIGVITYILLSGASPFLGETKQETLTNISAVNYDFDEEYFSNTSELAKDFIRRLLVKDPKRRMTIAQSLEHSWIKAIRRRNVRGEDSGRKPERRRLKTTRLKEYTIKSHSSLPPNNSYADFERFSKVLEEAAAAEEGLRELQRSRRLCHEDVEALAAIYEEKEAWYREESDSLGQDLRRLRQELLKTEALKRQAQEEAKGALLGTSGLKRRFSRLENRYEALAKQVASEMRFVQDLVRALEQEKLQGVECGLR

CSNK2A1 (human) = CSNK2A1 (human) (UniProt P68400)
STK10 (human) = STK10 (human) (UniProt O94804)
RPS6KA2 KD1 KD2 (human) = RPS6KA2 KD1 KD2 (human) (UniProt Q15349)

CC(C)N(CCC(=O)c1ccc2ccccc2c1)Cc1ccccc1
residual activity (GSK3B (human)): 94.9% | residual activity (PNCK (human)): 102% | residual activity (GRK7 (human)): 121% | residual activity (MARK2 (human)): 97.9% | residual activity (FGFR2 (human)): 107% | residual activity (PKN1 (human)): 107% | residual activity (SGK2 (human)): 101% | residual activity (BMX (human)): 102% | residual activity (MYLK (human)): 95.6% | residual activity (TLK2 (human)): 104% | residual activity (ULK3 (human)): 95.8% | residual activity (MAPK12 (human)): 96.2% | residual activity (PLK1 (human)): 97.8% | residual activity (NEK3 (human)): 101% | residual activity (CDK6 CCND3 (human)): 102% | residual activity (FER (human)): 105% | residual activity (GRK4 (human)): 94.9% | residual activity (CHEK2 (human)): 87.5% | residual activity (DMPK (human)): 108% | residual activity (IRAK4 (human)): 103% | residual activity (AURKA (human)): 104% | residual activity (HIPK1 (human)): 106% | residual activity (JAK3 JH1 JH2 (human)): 80.9% | residual activity (EPHA5 (human)): 118% | residual activity (MAP3K8 (human)): 94.6% | residual activity (DYRK2 (human)): 118% | residual activity (EPHB4 (human)): 102% | residual activity (STK3 (human)): 102% | residual activity (RPS6KA4 KD2 (human)): 109% | residual activity (MLTK (human)): 90.5% | residual activity (MST1R (human)): 92.6% | residual activity (BTK (human)): 87.5% | residual activity (TYRO3 (human)): 98.9% | residual activity (LYN (human)): 89.3% and 98.8% | residual activity (FGFR4 (human)): 103% | residual activity (SRC (human)): 93.2% | residual activity (PRKG1 (human)): 101% and 102% | residual activity (CSK (human)): 88.5% | residual activity (DAPK3 (human)): 107% | residual activity (CSNK2A1 (human)): 98.1% | residual activity (STK10 (human)): 93.6%

Cc1ccc(Nc2nccc(N(C)c3ccc4c(C)n(C)nc4c3)n2)cc1S(N)(=O)=O
residual activity (PNCK (human)): 95.9% | residual activity (GRK7 (human)): 96.5% | residual activity (MARK2 (human)): 111% | residual activity (FGFR2 (human)): 40.2% | residual activity (PKN1 (human)): 102% | residual activity (SGK2 (human)): 160% | residual activity (BMX (human)): 93.4% | residual activity (MYLK (human)): 93% | residual activity (TLK2 (human)): 85.6% | residual activity (ULK3 (human)): 102% | residual activity (MAPK12 (human)): 93.7% | residual activity (PLK1 (human)): 99.5% | residual activity (NEK3 (human)): 94.2% | residual activity (CDK6 CCND3 (human)): 96.1% | residual activity (FER (human)): 81.3% | residual activity (GRK4 (human)): 91.7% | residual activity (CHEK2 (human)): 95.1% | residual activity (DMPK (human)): 93.5% | residual activity (IRAK4 (human)): 98.4% | residual activity (AURKA (human)): 38.4% | residual activity (HIPK1 (human)): 97.6% | residual activity (JAK3 JH1 JH2 (human)): 95.3% | residual activity (EPHA5 (human)): 99.7% | residual activity (MAP3K8 (human)): 95.2% | residual activity (RPS6KA2 KD1 KD2 (human)): 93.2% | residual activity (DYRK2 (human)): 98.8% | residual activity (EPHB4 (human)): 93.8% | residual activity (STK3 (human)): 95.4% | residual activity (RPS6KA4 KD2 (human)): 102% | residual activity (MLTK (human)): 96.9% | residual activity (MST1R (human)): 97.8% | residual activity (BTK (human)): 78.8% | residual activity (TYRO3 (human)): 92% | residual activity (LYN (human)): 52.1% and 58.9% | residual activity (FGFR4 (human)): 68.3% | residual activity (SRC (human)): 70.7% | residual activity (PRKG1 (human)): 103% and 95.1% | residual activity (CSK (human)): 93% | residual activity (DAPK3 (human)): 92.3% | residual activity (CSNK2A1 (human)): 114% | residual activity (STK10 (human)): 50.1%
